Measurements published in patent US9884040B2, “Desethylamiodarone for use in cancer treatment” (PÉCSI TUDOMÁNYEGYETEM, priority 2015, dated 2018).

What was measured:
[1] = cited from earlier work
[2] = tested on: A549 (human lung adenocarcinoma epithelial) cells; test: MTT cell viability assay, A549; type: cell-based; details: increasing concentrations, 24 and 48 h
Procedure: (§1) The cells were seeded into 96-well plates at a starting density of 10^4 cells per well and cultured overnight before DEA was added to the medium for 24 h and 48 h. The medium was changed to a fresh one containing 0.5% of 3-[4,5-dimethylthiazol-2-yl]-2,5-diphenyl-tetrazolium bromide (MTT+) for an additional 3 hours, then the MTT+ reaction was terminated by adding HCl to 10 mM final concentration. The amount of blue formazan dye formed from MTT+ was proportional to the number of live cells, and was determined with an Anthos Labtech 2010 ELISA reader at 550 nm. All experiments were run in at least 4 replicates and repeated 3 times.
The effect of desethylamiodarone was measured in T24 (human urinary bladder carcinoma), A549 (human lung adenocarcinoma epithelial), B16F10 (mice melanoma), HeLa (human cervix adenocarcinoma), 4T1 (mouse mammary carcinoma) cell lines. Cells were treated with increasing concentrations of desethylamiodarone for 24 and 48 h. Cell growth was assessed by measuring metabolic activity, which reflects viability in the MTT-test in the course of 24 h, 48 h of continued exposure to desethylamiorarone. The untreated cells served as negative controls. The viability of the cells, was lower in all DEA-treated than in the control group, with the difference being statistically significant.

GSK-3β = test: Western blot of GSK-3β phosphorylation; type: cell-based, human; details: 5-10-15 μM, 6 hours; T24, B16F10 cell lines
Procedure: 10^6 cells were seeded into regular plates and treated as for the cell viability assay. Cells were harvested at intervals in a chilled lysis buffer containing 0.5 mM sodium-metavanadate, 1 mM ethylenediaminetetraacetic acid (EDTA) and protease inhibitor cocktail in phosphate-buffered saline (PBS). Probes were boiled and subjected to 10% sodium dodecyl sulphate polyacrylamide gel electrophoresis then transferred to nitrocellulose membranes. The membranes were blocked in 5% low fat milk for 1.5 h at room temperature then exposed to primary antibodies at 4° C. overnight in blocking solution. Appropriate horseradish peroxidase-conjugated secondary antibodies were used at a 1:5000 dilution (anti-mouse and anti-rabbit IgGs; Sigma-Aldrich, Steinheim, Germany) and visualized by enhanced chemiluminescence (Amersham Biosciences, Piscataway, N.J., USA). All experiments were repeated 3 times.
To determine the downstream consequences of DEA treatment, we examined the phosphorylation status of AKT (protein kinase B), GSK-3β and p42/44 mitogen-activated protein kinase (MAPK) (ERK1/2) by immunoblotting in T24 (human urinary bladder carcinoma), B16F10 (mice melanoma) cell lines. Cells were cultured in the presence of 5-10-15 μM DEA for 6 hours. The cells were prepared and western blot analysis was carried out to perform both phosphorylated and non-phosphorylated forms of the previously listed proteins. […]

[3] = tested on: MCF 7 breast cancer cells; test: Radiotherapy plus DEA, MTT viability, MCF 7; type: cell-based; details: 2Gy, 24, 48 and 72 hours, increasing DEA
Procedure: as §1
MCF 7 cells were exposed to 2Gy irradiation for 24, 48 and 72 hours in presence or absence of increasing concentration of DEA. Viability of the cells was detected by the MTT method. Untreated cells served as controls.

[4] = tested on: T24/83 human urinary bladder carcinoma cell line; test: Colony formation assay, T24; type: cell-based; details: 7 days; 500 nM-3 μM
Procedure: Cells were trypsinized and plated in triplicate into 6-well plates at 500 cells/well. Cells were treated with different concentration of Dea. After 7 days of incubation, cells were washed and stained with Coomassie-blue, and the colonies containing more than 50 cells were counted. The number of colonies were determined and normalized to the number of colonies in controls.
To assess the recovery ability of cells that survived treatment, long-term (7 days) colony formation assay was performed.
Untreated cells served as controls. The results are mean±SEM of 3 independent experiments performed in at least quadruplicate. p<0.01 compared to the corresponding control group. The data shown on FIG. 5 provide evidence that DEA can be useful to treat bladder cancer.

[5] = tested on: HeLa human cervix adenocarcinoma cell line; test: Colony formation assay, HeLa; type: cell-based; details: one week; 1, 1.5, 2, 2.5 or 3 μM
Procedure: Cells were trypsinized and plated in triplicate into 6-well plates at 500 cells/well. Cells were treated with different concentration of Dea. After 7 days of incubation, cells were washed and stained with Coomassie-blue, and the colonies containing more than 50 cells were counted. The number of colonies were determined and normalized to the number of colonies in controls. To assess the recovery ability of cells that survived treatment, long-term (7 days) colony formation assay was performed. […] HeLa cells were incubated with the indicated concentrations of desethylamiodarone (1, 1.5, 2, 2.5 or 3 μM for one week and cell colonies were fixed, stained and counted. (A-B) Data are expressed as the mean±SD of ≧3 experiments; a p<0.01 is considered statistically significant The data shown on FIG. 8 provide evidence that DEA can be useful to cervix carcinoma.

[6] = after administration of amiodarone; cited from earlier work

CCCCc1oc2ccccc2c1C(=O)c1cc(I)c(OCCNCC)c(I)c1 [DEA, (2-butyl-3-benzofuranyl)[4-[2-(ethylamino)ethoxy]-3,5-diiodophenyl]-methanone]
Plasma protein binding [1]: strongly bound to plasma proteins
Viability of A549 cells (MTT) [2]: significantly inhibited the viability
GSK-3β phosphorylation (GSK-3β): decreased the phosphorylation of GSK-3β
Radiosensitization, viability of MCF 7 (MTT) [3]: sensitize MCF 7 breast cancer cells to irradiation
Colony formation, T24 [4]: significant decrease in the number and the size of colonies
Colony formation, HeLa [5]: significant decrease in the number and the size of colonies
Concentration in the lungs [6]: can reach mM concentrations
